From the supplement of paper PMC10307832

Key:
Test in all cases: relative viability (nuclei count vs DMSO), 5 days (fraction); higher = more cells survive
JZL-184 + Vorinostat = compound: C1CN(CCC1C(C2=CC3=C(C=C2)OCO3)(C4=CC5=C(C=C4)OCO5)O)C(=O)OC6=CC=C(C=C6)[N+](=O)[O-] [JZL-184] + O=C(CCCCCCC(=O)Nc1ccccc1)NO [Vorinostat] (partner 1 µM)
Method in brief: (§1)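 Cells from lung cancer lines were seeded into 1536-well plates and, one day later, dosed by pin tool. Treatments were either a single drug or a fixed dose of an anchor drug with five library-drug doses (not always all listed) in √10 steps. After 5 days, nuclei were stained in a one-step fixation (final 0.05% Triton X-100, 1% formaldehyde, 1 ug/ml Hoechst) and counted on 4× images, and relative viability is the treated-to-vehicle nuclei ratio, as the median of duplicate plates.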

JZL-184 + Pemetrexed = compound: C1CN(CCC1C(C2=CC3=C(C=C2)OCO3)(C4=CC5=C(C=C4)OCO5)O)C(=O)OC6=CC=C(C=C6)[N+](=O)[O-] [JZL-184] + Nc1nc2[nH]cc(CCc3ccc(C(=O)N[C@@H](CCC(=O)O)C(=O)O)cc3)c2c(=O)[nH]1 [Pemetrexed] (partner 0.2 µM)
Method in brief: as §1

JZL-184 + Alpelisib = compound: C1CN(CCC1C(C2=CC3=C(C=C2)OCO3)(C4=CC5=C(C=C4)OCO5)O)C(=O)OC6=CC=C(C=C6)[N+](=O)[O-] [JZL-184] + Cc1nc(NC(=O)N2CCC[C@H]2C(N)=O)sc1-c1ccnc(C(C)(C)C(F)(F)F)c1 [Alpelisib] (partner 2 µM)
Method in brief: as §1

JZL-184 + Decitabine = compound: C1CN(CCC1C(C2=CC3=C(C=C2)OCO3)(C4=CC5=C(C=C4)OCO5)O)C(=O)OC6=CC=C(C=C6)[N+](=O)[O-] [JZL-184] + Nc1ncn([C@H]2C[C@H](O)[C@@H](CO)O2)c(=O)n1 [Decitabine] (partner 2 µM)
Method in brief: as §1

JZL-184 + Olaparib = compound: C1CN(CCC1C(C2=CC3=C(C=C2)OCO3)(C4=CC5=C(C=C4)OCO5)O)C(=O)OC6=CC=C(C=C6)[N+](=O)[O-] [JZL-184] + O=C(c1cc(Cc2n[nH]c(=O)c3ccccc23)ccc1F)N1CCN(C(=O)C2CC2)CC1 [Olaparib] (partner 8 µM)
Method in brief: as §1

Cell Line | relative viability (JZL-184 + Vorinostat; first compound 0.04 µM) | relative viability (JZL-184 + Vorinostat; first compound 0.4 µM) | relative viability (JZL-184 + Vorinostat; first compound 1.265 µM) | relative viability (JZL-184 + Vorinostat; first compound 4 µM) | relative viability (JZL-184 + Pemetrexed; first compound 0.04 µM) | relative viability (JZL-184 + Pemetrexed; first compound 0.4 µM) | relative viability (JZL-184 + Pemetrexed; first compound 1.265 µM) | relative viability (JZL-184 + Pemetrexed; first compound 4 µM) | relative viability (JZL-184 + Alpelisib; first compound 0.04 µM) | relative viability (JZL-184 + Alpelisib; first compound 0.4 µM) | relative viability (JZL-184 + Alpelisib; first compound 1.265 µM) | relative viability (JZL-184 + Alpelisib; first compound 4 µM) | relative viability (JZL-184 + Decitabine; first compound 0.04 µM) | relative viability (JZL-184 + Decitabine; first compound 0.4 µM) | relative viability (JZL-184 + Decitabine; first compound 1.265 µM) | relative viability (JZL-184 + Decitabine; first compound 4 µM) | relative viability (JZL-184 + Olaparib; first compound 0.04 µM) | relative viability (JZL-184 + Olaparib; first compound 0.4 µM) | relative viability (JZL-184 + Olaparib; first compound 1.265 µM) | relative viability (JZL-184 + Olaparib; first compound 4 µM)
NCI-H647 | 0.898 | 0.635 | 0.892 | 0.4 | 0.201 | 0.161 | 0.209 | 0.19 | 1.15 | 0.957 | 1.07 | 1.2 | 0.455 | 0.302 | 0.353 | 0.426 | 0.654 | 0.481 | 0.471 | 0.564
NCI-H2009 | 0.702 | 0.692 | 0.69 | 0.745 | 1.14 | 1.03 | 1.04 | 0.994 | 1.17 | 1.1 | 1.16 | 1.09 | 0.425 | 0.385 | 0.363 | 0.446 | 0.785 | 0.696 | 0.734 | 0.642
EPLC-272H | 0.509 | 0.536 | 0.402 | 0.53 | 0.316 | 0.22 | 0.351 | 0.319 | 0.953 | 0.817 | 1.01 | 0.966 | 0.356 | 0.386 | 0.396 | 0.384 | 0.68 | 0.613 | 0.805 | 0.778
NCI-H520 | 0.884 | 0.683 | 0.798 | 0.678 | 0.782 | 0.483 | 0.748 | 0.684 | 1.02 | 0.965 | 1.02 | 0.897 | 0.546 | 0.545 | 0.503 | 0.477 | 0.39 | 0.369 | 0.351 | 0.304
NCI-H2405 | 1.15 | 0.83 | 1.3 | 0.968 | 1.09 | 0.999 | 1.14 | 1.05 | 0.673 | 0.794 | 0.83 | 0.816 | 0.792 | 0.694 | 0.738 | 0.767 | 0.974 | 0.901 | 0.836 | 0.855
NCI-H2085 |  | 0.805 | 0.832 | 0.709 |  | 0.817 | 0.948 | 0.882 | 0.946 | 0.904 | 0.905 | 0.811 |  | 0.538 | 0.521 | 0.627 |  | 0.743 | 0.815 | 0.704
NCI-H322M | 0.882 | 0.784 | 0.867 | 0.684 | 0.591 | 0.604 | 0.615 | 0.538 | 0.656 | 0.777 | 0.749 | 0.775 | 0.661 | 0.684 | 0.678 | 0.668 | 0.785 | 0.591 | 0.774 | 0.733
NCI-H1944 | 0.528 | 0.476 | 0.565 | 0.475 | 0.587 | 0.53 | 0.72 | 0.567 | 0.798 | 0.869 | 0.842 | 0.804 | 0.451 | 0.416 | 0.407 | 0.391 | 0.402 | 0.351 | 0.401 | 0.444
LC-2-ad | 0.774 | 0.67 | 0.676 | 0.669 | 0.293 | 0.278 | 0.279 | 0.265 | 0.858 | 0.822 | 0.95 | 0.839 | 0.687 | 0.718 | 0.887 | 0.787 | 0.79 | 0.682 | 0.696 | 0.686
NCI-H358 | 0.776 | 0.768 | 0.677 | 0.69 | 0.195 | 0.162 | 0.181 | 0.163 | 1.05 | 0.803 | 0.973 | 0.788 | 0.241 | 0.211 | 0.237 | 0.21 | 0.804 | 0.637 | 0.599 | 0.592
NCI-H2170 | 0.922 | 0.754 | 0.811 | 0.737 | 0.267 | 0.258 | 0.252 | 0.286 | 0.806 | 0.793 | 0.74 | 0.736 | 0.497 | 0.475 | 0.473 | 0.476 | 0.68 | 0.613 | 0.617 | 0.544
NCI-H2342 | 0.809 | 0.676 | 0.719 | 0.813 | 0.654 | 0.732 | 0.78 | 0.778 |  |  |  |  | 0.736 | 0.691 | 0.716 | 0.817 | 0.416 | 0.4 | 0.383 | 0.543
SW 900 | 0.496 | 0.4 | 0.587 | 0.527 | 0.496 | 0.482 | 0.537 | 0.491 |  |  |  |  | 0.465 | 0.416 | 0.465 | 0.451 | 0.966 | 0.858 | 0.844 | 0.898
A-427 | 0.871 | 0.829 | 0.83 | 0.754 | 1.03 | 0.971 | 1.06 | 0.886 | 1.08 | 1.06 | 1.1 | 0.979 | 0.617 | 0.585 | 0.599 | 0.537 | 0.807 | 0.739 | 0.77 | 0.732
